Converted amounts (≈) assume the structure as drawn. Like-named read-outs stand apart in the source and are kept apart here.
Experiments:
Format in all cases: cell-based
P. aeruginosa PAO1 [1] = assay: Growth of D. discoideum DH1-10 on a lawn of P. aeruginosa PAO1 grown with azithromycin; conditions: lawn of PAO1, 2 μg/ml azithromycin
Method: Quantitative measurements of D. discoideum growth on a lawn of pure P. aeruginosa were obtained by first plating 200 μl of P. aeruginosa culture on SM-agar. Droplets of 5 μl containing serial dilutions of D. discoideum cells (50.000 cells, 10.000 cells, 2.000, etc.) were then spotted on the bacterial lawn. The plates were incubated for 5 days at 25° C. and the highest dilution at which D. discoideum growth was visible was recorded.
However, in these experiments, Dictyostelium was grown in, the presence of both Klebsiella and Pseudomonas bacteria. […] To obtain more quantitative results, higher numbers of Dictyostelium cells were used to determine how many amoebae would be necessary to create a plaque in a lawn of P. aeruginosa. […] Consequently growth of Dictyostelium on the lasR mutant was scored as 1. On a lawn of the rhlR mutant PT462, amoebal growth could be observed in the first five dilutions of Dictyostelium (FIG. 2C; scored 5). […]
A lawn of P. aeruginosa PAO1 is grown in the presence of 2 μg/ml of azithromycin overnight. The bacterial lawn is then seeded with different dilutions of D. discoideum DH1-10 three days latter and the appearance of D. discoideum DH1-10 colonies is monitored. Growth of colonies of D. discoideum DH1-10 are recorded and scored between 1 and 2 (same scale as FIG. 2) as compared to a score of 0 in the absence of antibiotic.

[2] = test system: P. aeruginosa PT625 (nalB); assay: MIC in Mueller-Hinton broth by the microdilution method; conditions: Pseudomonas aeruginosa
Method: (§1) Bacteria were grown overnight at 37° C. on Luria-Bertani (LB) agar. Single colonies were inoculated into 5 ml PB (2% (wt/vol) peptone, 0.3% (wt/vol) MgCl2.6H2O, 1% (wt/vol) K2SO4) (Essar et al., 1990, J. Bacteriol., 172(2), 884-900) in a 50 ml flask and grown at 37° C. for 8 hr prior to use. […] Under these conditions, similar OD600s were obtained for each strain and the induction of quorum sensing was maximal. Minimal Inhibitory Concentrations (MICs) were determined in Mueller-Hinton broth by the microdilution method (Thornsberry et al., 1983 NCCLS, 3, 48-56).

P. aeruginosa PAO1 [3] = assay: as above; conditions: Pseudomonas aeruginosa; strain PAO1
Method: as §1

[4] = test system: P. aeruginosa PT149 (nfxC); assay: as above; conditions: Pseudomonas aeruginosa
Method: as §1

[5] = test system: P. aeruginosa PAO-BI (nfxC); assay: as above; conditions: Pseudomonas aeruginosa
Method: as §1

[6] = test system: P. aeruginosa PT648 (nfxB); assay: as above; conditions: Pseudomonas aeruginosa
Method: as §1

P. aeruginosa PDO100 = assay: as above; conditions: Pseudomonas aeruginosa
Method: as §1

[7] = strain PT149 (nfxC), read-out: MIC
[8] = strain PAO-BI (nfxC), read-out: MIC
[9] = strain PT648 (nfxB), read-out: MIC

| SMILES | Growth of colonies of D. discoideum DH1-10 in the presence versus absence of azithromycin (P. aeruginosa PAO1 [1]) | MIC [2] | MIC (P. aeruginosa PAO1 [3]) | MIC [4, 7] | MIC [5, 8] | MIC [6, 9] | MIC (P. aeruginosa PDO100; strain PDO100, read-out: MIC) | MIC [4] | MIC [5] | MIC [6] | MIC (P. aeruginosa PDO100; PDO100) |
| --- | --- | --- | --- | --- | --- | --- | --- | --- | --- | --- | --- |
| CC[C@H]1OC(=O)[C@H](C)[C@@H](O[C@H]2C[C@@](C)(OC)[C@@H](O)[C@H](C)O2)[C@H](C)[C@@H](O[C@@H]2O[C@H](C)C[C@H](N(C)C)[C@H]2O)[C@](C)(O)C[C@@H](C)CN(C)[C@H](C)[C@@H](O)[C@]1(C)O [azithromycin, Azithromycin] | significantly greater |  |  |  |  |  |  |  |  |  |  |
| CO/N=C(\C(=O)N[C@@H]1C(=O)N2C(C(=O)[O-])=C(C[n+]3cccc4c3CCC4)CS[C@H]12)c1csc(N)n1 [Cefpirome] |  | 4 µg/mL (≈ 7.77 µM) | 2 µg/mL (≈ 3.89 µM) | 0.5 µg/mL (≈ 0.972 µM) | 0.5 µg/mL (≈ 0.972 µM) | 8 µg/mL (≈ 15.5 µM) | 2 µg/mL (≈ 3.89 µM) |  |  |  |  |
| O=C(N[C@H](CO)[C@H](O)c1ccc([N+](=O)[O-])cc1)C(Cl)Cl [Chloramphenicol] |  | 64 µg/mL (≈ 198 µM) | 32 µg/mL (≈ 99 µM) |  |  |  |  | 1060 µg/mL (≈ 3290 µM) | 1060 µg/mL (≈ 3290 µM) | 64 µg/mL (≈ 198 µM) | 32 µg/mL (≈ 99 µM) |
| O=C(O)c1cn(C2CC2)c2cc(N3CCNCC3)c(F)cc2c1=O [Ciprofloxacin] |  | 0.5 µg/mL (≈ 1.51 µM) | 0.125 µg/mL (≈ 0.377 µM) | 1 µg/mL (≈ 3.02 µM) | 1 µg/mL (≈ 3.02 µM) | 1 µg/mL (≈ 3.02 µM) | 0.125 µg/mL (≈ 0.377 µM) |  |  |  |  |
| C[C@H]1[C@H](NC(=O)/C(=N\OC(C)(C)C(=O)O)c2csc(N)n2)C(=O)N1S(=O)(=O)O [Aztreonam] |  | 16 µg/mL (≈ 36.7 µM) | 4 µg/mL (≈ 9.19 µM) | 1 µg/mL (≈ 2.3 µM) | 2 µg/mL (≈ 4.59 µM) | 2 µg/mL (≈ 4.59 µM) | 2 µg/mL (≈ 4.59 µM) |  |  |  |  |
| C[C@@H](O)[C@H]1C(=O)N2C(C(=O)O)=C(SCCN=CN)C[C@H]12 [Imipenem] |  | 1 µg/mL (≈ 3.34 µM) | 1 µg/mL (≈ 3.34 µM) | 4 µg/mL (≈ 13.4 µM) | 4 µg/mL (≈ 13.4 µM) | 1 µg/mL (≈ 3.34 µM) | 1 µg/mL (≈ 3.34 µM) |  |  |  |  |

— patent US20070166781A1, “Method for assessing the virulence of pathogens and uses thereof” (priority 2002, published 2007)
